“Also recorded” adds a separate entry of the source.
What was measured:
[1] = test system: A549 Cell line (Lung Cancer Cell line); experiment: MTT cell proliferation assay, A549 Cell line; type: cell-based, human; settings: for viability at 0.01 µM / viability at 0.1 µM / viability at 2.5 µM / viability at 5 µM / viability at 10 µM: Homo sapiens, 72 h, MTT; for viability at 0.01 µM: A549, 0.01 μM; for viability at 0.1 µM: A549, 0.1 μM; for viability at 2.5 µM: A549, 2.5 μM; for viability at 5 µM: A549, 5 μM; for viability at 10 µM: A549, 10 μM
Procedure: (§1) 1. Protocol Followed for Anti Cancer Activity and Results, Cell Proliferation Assays: Cell lines used herein were purchased from NCCS (National Center for Cell Sciences) Pune, India. Invitro Activity was performed in NCL (National Chemical Laboratory) Pune. Each cell line was plated in 96-well microtiter plates (10,000 cells per well), and serial dilutions of indicated compounds were added. At the end of the incubation period (72 h at 37° C.), cell viability was determined by a tetrazolium dye, MTT (3-(4,5-dimethylthiazol-2-yl)-2,5-diphenyl tetrazolium bromide) (Promega, USA). The formazan crystals were dissolved in DMSO, and the absorbance at 600 nm was recorded using an ELISA plate reader. IC50 values were calculated using nonlinear regression and defined as the concentration needed for a 50% reduction in absorbance of treated versus untreated control cells.
By using the above procedure, the compounds of the invention were tested on A549 Cell line and the results obtained are presented below in table 4, Refer FIG. 1.

[2] = test system: HOP-62 Cell line; experiment: MTT cell proliferation assay, HOP-62 Cell line; type: cell-based; settings: for viability at 0.01 µM / viability at 0.1 µM / viability at 2.5 µM / viability at 5 µM / viability at 10 µM: Homo sapiens, 72 h, MTT; for viability at 0.01 µM: HOP-62, 0.01 μM; for viability at 0.1 µM: HOP-62, 0.1 μM; for viability at 2.5 µM: HOP-62, 2.5 μM; for viability at 5 µM: HOP-62, 5 μM; for viability at 10 µM: HOP-62, 10 μM
Procedure: as §1
By using the above procedure, the compounds of the invention were tested on HOP-62 Cell line and the results obtained are presented below in table 6, Refer FIG. 3.

[3] = test system: MDA-MB-436 Cell line; experiment: MTT cell proliferation assay, MDA-MB-436 Cell line; type: cell-based; settings: for viability at 0.01 µM / viability at 0.1 µM / viability at 2.5 µM / viability at 5 µM / viability at 10 µM: Homo sapiens, 72 h, MTT; for viability at 0.01 µM: MDA-MB-436, 0.01 μM; for viability at 0.1 µM: MDA-MB-436, 0.1 μM; for viability at 2.5 µM: MDA-MB-436, 2.5 μM; for viability at 5 µM: MDA-MB-436, 5 μM; for viability at 10 µM: MDA-MB-436, 10 μM
Procedure: as §1
By using the above procedure, the compounds of the invention were tested on MDA-MB-436 Cell line and the results obtained are presented below in table 7, Refer FIG. 4.

[4] = test system: MCF-7 Cell line; experiment: MTT cell proliferation assay, MCF-7 Cell line; type: cell-based; settings: for viability at 0.01 µM / viability at 0.1 µM / viability at 2.5 µM / viability at 5 µM / viability at 10 µM: Homo sapiens, MCF7, 72 h, MTT; for viability at 0.01 µM: MCF-7, 0.01 μM; for viability at 0.1 µM: MCF-7, 0.1 μM; for viability at 2.5 µM: MCF-7, 2.5 μM; for viability at 5 µM: MCF-7, 5 μM; for viability at 10 µM: MCF-7, 10 μM
Procedure: as §1
Table 4 indicates anticancer activity against A549 Cell line. The Gefitinib was used as standard and % cell Viable was measured compared to control. The procedure used was MTT assay as mentioned. […] By using the above procedure, the compounds of the invention were tested on MCF-7 Cell line and the results obtained are presented below in table 5, Refer FIG. 2.

[5] = Log P (Table 3); type: physicochemical; settings: no method given
[6] = test system: U87MG Cell line (Glioblastoma cell line); experiment: MTT cell proliferation assay, U87MG Cell line; type: cell-based; settings: for viability at 0.01 µM / viability at 0.1 µM / viability at 2.5 µM / viability at 5 µM / viability at 10 µM: Homo sapiens, U-87 MG, U87MG, 72 h, MTT
Procedure: as §1
By using the above procedure, the compounds of the invention were tested on U87MG Cell line (glioblastoma cell line) and the results obtained are presented below in table 8, Refer FIG. 5.

[7] = compared among 15 molecules and with Gefitinib, listed as M4

`Nc1nc(Nc2ccc([N+](=O)[O-])cc2)sc1-c1nc2ccccc2[nH]1` [Molecule S4-M3, 5-(1H-benzo[d]imidazol-2-yl)-N^2-(4-nitrophenyl)thiazole-2,4-diamine] gave a viability at 0.01 µM [1] of 97.6%, a viability at 0.1 µM [1] of 90.4% and a viability at 2.5 µM [1] of 81.8%. For the same molecule, the viability at 5 µM [1] was 71.8%, the viability at 10 µM [1] was 62.8% and the viability at 0.01 µM [2] was 99.6%. It also gave a viability at 0.1 µM [2] of 94.4%, a viability at 2.5 µM [2] of 90.8% and a viability at 5 µM [2] of 90.8%. For the same molecule, the viability at 10 µM [2] was 88.8%, the viability at 0.01 µM [3] was 99.6% and the viability at 0.1 µM [3] was 94.4%. For the same molecule, the viability at 2.5 µM [3] was 90.8%, the viability at 5 µM [3] was 79.8% and the viability at 10 µM [3] was 66.8%. For the same molecule, the viability at 0.01 µM [4] was 99.6%, the viability at 0.1 µM [4] was 92.4% and the viability at 2.5 µM [4] was 90.8%. The viability at 5 µM [4] was 84.8%, the viability at 10 µM [4] was 72.8% and the melting point was 260 to 262 °C. The logP [5] was 3.32, the viability at 0.01 µM [6] was 96.6% and the viability at 0.1 µM [6] was 82.4%. The viability at 2.5 µM [6] was 69.8%, the viability at 5 µM [6] was 55.8% and the viability at 10 µM [6] was 30.8%.

For `Nc1nc(Nc2ccccc2[N+](=O)[O-])sc1-c1nc2ccccc2[nH]1` [Molecule S4-M4, 5-(1H-benzo[d]imidazol-2-yl)-N^2-(2-nitrophenyl)thiazole-2,4-diamine], the viability at 0.01 µM [1] was 57.1%, the viability at 0.1 µM [1] was 49.1% and the viability at 2.5 µM [1] was 34.7%. The viability at 5 µM [1] was 25.9%, the viability at 10 µM [1] was 18.4% and the “anticancer activity against A549 Cell line (in words)” value ([1]; compared among 15 molecules and with Gefitinib) was “most active”. It also gave a viability at 0.01 µM [2] of 43.1%, a viability at 0.1 µM [2] of 36.1% and a viability at 2.5 µM [2] of 25.7%. The viability at 5 µM [2] was 18.9%, the viability at 10 µM [2] was 12.4% and the “anticancer activity against HOP-62 Cell line (in words)” value [2, 7] was “most active; also recorded: Invitro activity comparable to standard Gefitinib”. For the same molecule, the viability at 0.01 µM [3] was 69.7%, the viability at 0.1 µM [3] was 58.2% and the viability at 2.5 µM [3] was 42.8%. For the same molecule, the viability at 5 µM [3] was 28.9%, the viability at 10 µM [3] was 21.9% and the “anticancer activity against MDA-MB-436 Cell line (in words)” value [3, 7] was “most active; also recorded: Invitro activity comparable to standard Gefitinib”. It also gave a viability at 0.01 µM [4] of 72.7%, a viability at 0.1 µM [4] of 61.2% and a viability at 2.5 µM [4] of 53.8%. The viability at 5 µM [4] was 42.9%, the viability at 10 µM [4] was 31.9% and the “anticancer activity against MCF-7 Cell line (in words)” value ([4]; compared among 15 molecules, listed as M4) was “most active; also recorded: showing Invitro activity”. It also gave a melting point of 220 to 222 °C, a logP [5] of 3.33 and a viability at 0.01 µM [6] of 45.7%. The viability at 0.1 µM [6] was 33.2%, the viability at 2.5 µM [6] was 22.8% and the viability at 5 µM [6] was 18.9%. For the same molecule, the viability at 10 µM [6] was 8.86% and the “anticancer activity against U87-MG Cell line (in words)” value ([6]; compared among 15 molecules) was “most active”.

Work on `Nc1nc(Nc2ccc(Cl)cc2)sc1-c1nc2ccccc2[nH]1` [Molecule S4-M5, 5-(1H-benzo[d]imidazol-2-yl)-N^2-(4-chlorophenyl)thiazole-2,4-diamine] yielded a viability at 0.01 µM [1] of 95.8%, a viability at 0.1 µM [1] of 85.6% and a viability at 2.5 µM [1] of 73.9%. It also gave a viability at 5 µM [1] of 65.9%, a viability at 10 µM [1] of 54.9% and a viability at 0.01 µM [2] of 101%. It also gave a viability at 0.1 µM [2] of 92.6%, a viability at 2.5 µM [2] of 88.9% and a viability at 5 µM [2] of 82.9%. For the same molecule, the viability at 10 µM [2] was 75.9%, the viability at 0.01 µM [3] was 99.8% and the viability at 0.1 µM [3] was 99.6%. It also gave a viability at 2.5 µM [3] of 99.9%, a viability at 5 µM [3] of 99.9% and a viability at 10 µM [3] of 98.9%. For the same molecule, the viability at 0.01 µM [4] was 89.8%, the viability at 0.1 µM [4] was 83.6% and the viability at 2.5 µM [4] was 79.9%. It also gave a viability at 5 µM [4] of 72.9%, a viability at 10 µM [4] of 65.9% and a melting point of 210 to 212 °C. For the same molecule, the logP [5] was 3.99, the viability at 0.01 µM [6] was 92.8% and the viability at 0.1 µM [6] was 80.6%. For the same molecule, the viability at 2.5 µM [6] was 72.9%, the viability at 5 µM [6] was 60.9% and the viability at 10 µM [6] was 49.9%.

`Cc1cc(C)c(Nc2nc(N)c(-c3nc4ccccc4[nH]3)s2)c(C)c1` [Molecule S4-M6, 5-(1H-benzo[d]imidazol-2-yl)-N^2-mesitylthiazole-2,4-diamine] showed a viability at 0.01 µM [1] of 92.3%, a viability at 0.1 µM [1] of 85.1% and a viability at 2.5 µM [1] of 72%. For the same molecule, the viability at 5 µM [1] was 61%, the viability at 10 µM [1] was 50% and the viability at 0.01 µM [2] was 103%. It also gave a viability at 0.1 µM [2] of 100%, a viability at 2.5 µM [2] of 100% and a viability at 5 µM [2] of 100%. It also gave a viability at 10 µM [2] of 91%, a viability at 0.01 µM [3] of 116% and a viability at 0.1 µM [3] of 112%. For the same molecule, the viability at 2.5 µM [3] was 110%, the viability at 5 µM [3] was 105% and the viability at 10 µM [3] was 101%. For the same molecule, the viability at 0.01 µM [4] was 112%, the viability at 0.1 µM [4] was 100% and the viability at 2.5 µM [4] was 101%. The viability at 5 µM [4] was 100%, the viability at 10 µM [4] was 100% and the melting point was 218 to 220 °C. For the same molecule, the logP [5] was 2.11, the viability at 0.01 µM [6] was 91.3% and the viability at 0.1 µM [6] was 82.1%. The viability at 2.5 µM [6] was 70%, the viability at 5 µM [6] was 59% and the viability at 10 µM [6] was 42.4%.

For `Nc1nc(Nc2ccc(Br)cc2F)sc1-c1nc2ccccc2[nH]1` [Molecule S4-M7, 5-(1H-benzo[d]imidazol-2-yl)-N^2-(4-bromo-2-fluorophenyl)thiazole-2,4-diamine], the viability at 0.01 µM [1] was 97.1%, the viability at 0.1 µM [1] was 90.9% and the viability at 2.5 µM [1] was 81.8%. For the same molecule, the viability at 5 µM [1] was 71.8%, the viability at 10 µM [1] was 62.8% and the viability at 0.01 µM [2] was 102%. For the same molecule, the viability at 0.1 µM [2] was 101%, the viability at 2.5 µM [2] was 100% and the viability at 5 µM [2] was 100%. For the same molecule, the viability at 10 µM [2] was 90.9%, the viability at 0.01 µM [3] was 100% and the viability at 0.1 µM [3] was 99.9%. The viability at 2.5 µM [3] was 101%, the viability at 5 µM [3] was 93.8% and the viability at 10 µM [3] was 91.8%. It also gave a viability at 0.01 µM [4] of 100%, a viability at 0.1 µM [4] of 101% and a viability at 2.5 µM [4] of 101%. For the same molecule, the viability at 5 µM [4] was 101%, the viability at 10 µM [4] was 101% and the melting point was 200 to 202 °C. The logP [5] was 3.2, the viability at 0.01 µM [6] was 98.1% and the viability at 0.1 µM [6] was 94.9%. The viability at 2.5 µM [6] was 93.8%, the viability at 5 µM [6] was 90.8% and the viability at 10 µM [6] was 85.8%.

— patent US9862712B2, “Benzimidazole based EGFR inhibitors” (COUNCIL OF SCIENTIFIC & INDUSTRIAL RESEARCH, priority 2014, dated 2018)
